Results published in patent US11208696B2, “Prognostic biomarkers for TTK inhibitor chemotherapy” (NETHERLANDS TRANSLATIONAL RESEARCH CENTER B.V., priority 2015, dated 2021).

Legend:
[1] = test system: HCT116 cells; assay: Proliferation assay with isogenic cell line pair: parental HCT116 (S45del/+) and isogenic derivative lacking mutated CTNNB1; assay type: cell-based, human; details: for Δefficacy: difference in maximum percentage effect, isogenic (−/+) versus parental HCT116 (S45del/+), negative = parental more sensitive
[2] = test system: CTNNB1-mutant cancer cell lines (A427, LS 174T, HCT116, SW48); assay: Cell proliferation assays, panel of sixty-six cancer cell lines: CTNNB1-mutant cell lines; assay type: cell-based, human

Row | IC50 ([2]; Homo sapiens, 120 h, read-out: pIC50 average Mutant (converted)) [nM] | Compound | Δefficacy [1] | ΔpIC50 [2] | ΔpIC50 [1]
1 |  | COc1ccc(Oc2cc(NCC3CCOCC3)c3ncc(-c4ccc(C(=O)NC5CC5)c(C)c4)n3n2)c(F)c1F [Example 5, N-cyclopropyl-4-[6-(2,3-difluoro-4-methoxy-phenoxy)-8-(tetrahydropyran-4-ylmethylamino)imidazo[1,2-b]pyridazin-3-yl]-2-methyl-benzamide, reference compound] | −26 |  | 
2 | 11 | COc1cc(C(=O)NC2CCOCC2)ccc1Nc1ncc2c(n1)-n1ccc(C(=O)Nc3c(C)cccc3C)c1CC2 [Example 8, N-(2,6-dimethylphenyl)-2-[2-methoxy-4-(tetrahydropyran-4-ylcarbamoyl)anilino]-5,6-dihydropyrimido[4,5-e]indolizine-7-carboxamide] | −11 | −0.57 | −0.29
3 |  | CCc1n[nH]c(CC)c1NC(=O)c1ccn2c1CCc1cnc(Nc3ccc(N4CCN(C)CC4)cc3OC(F)F)nc1-2 [Example 12, N-(3,5-diethyl-1H-pyrazol-4-yl)-2-[2-(difluoromethoxy)-4-(4-methylpiperazin-1-yl)anilino]-5,6-dihydropyrimido[4,5-e]indolizine-7-carboxamide] | −18 |  | 
4 |  | COCC(=O)N1CCN(c2ccc(Nc3ncc4c(n3)-n3ccc(C(=O)Nc5c(C)cccc5C)c3CC4)c(OC)c2)CC1 [Example 17, N-(2,6-dimethylphenyl)-2-[2-methoxy-4-[4-(2-methoxyacetyl)piperazin-1-yl]anilino]-5,6-dihydropyrimido[4,5-e]indolizine-7-carboxamide] | −16 |  | 
